Data as given in patent US9296741B2, “Bromodomain inhibitors” (priority 2012, dated 2016).

Experiments:
[1] = Human liver microsome stability assay; type: in vitro ADME; conditions: both sexes, human, microsomes, pH 7.4
[2] = Rat liver microsome stability assay; type: in vitro ADME; conditions: rat liver microsomes (male Sprague-Dawley), 0.5 μM test compound, 0.25 mg/mL microsomal protein, pH 7.4, 37° C.; read-out: Stability in rat liver microsomes (t1/2 in minutes)
[3] = Mouse liver microsome stability assay; type: in vitro ADME; conditions: male, CD1, mouse, microsomes, pH 7.4
[4] = molecular target: human BRD4 second bromodomain (BDII_E352-M457) (Homo sapiens (Human), UniProt O60885); experiment: TR-FRET bromodomain binding assay, BRD4 second bromodomain
[5] = molecular target: human BRD4 first bromodomain (BDI_K57-E168) (Homo sapiens (Human), UniProt O60885); experiment: TR-FRET bromodomain binding assay, BRD4 first bromodomain
[6] = tested on: breast cancer cell line MX-1; experiment: MX-1 cell line proliferation assay; type: cell-based, human; conditions: Homo sapiens, MX1, 72 h; MX-1 cells, 3-day proliferation, Cell Titer Glo; read-out: Cellular proliferation: EC50

Row | half-life at 0.5 μM [1] | half-life at 0.5 μM [2] | half-life at 0.5 μM [3] | Ki [4] | Ki [5] | EC50 [6] | SMILES
1 | 30 min | 7 min | 3 min | 5.8 nM | 5.3 nM | 46 nM | CC(=O)Nc1ccc(Oc2ccccc2)c(-c2cn(C)c(=O)c3[nH]ccc23)c1 [Example 6, N-[3-(6-methyl-7-oxo-6,7-dihydro-1H-pyrrolo[2,3-c]pyridin-4-yl)-4-phenoxyphenyl]acetamide]
2 |  | 3 min | 4 min | 63.3 nM | 53.1 nM | 773 nM | Cn1cc(-c2cc(NS(=O)(=O)CCF)ccc2Oc2ccc(F)cc2F)c2cc[nH]c2c1=O [Example 64, N-[4-(2,4-difluorophenoxy)-3-(6-methyl-7-oxo-6,7-dihydro-1H-pyrrolo[2,3-c]pyridin-4-yl)phenyl]-2-fluoroethanesulfonamide]
3 | 17 min | 3 min | 5 min |  |  | 275 nM | CCOC(=O)c1cc2c(-c3cc(N)ccc3Oc3ccccc3)nn(C)c(=O)c2[nH]1 [Example 74, ethyl 4-(5-amino-2-phenoxyphenyl)-6-methyl-7-oxo-6,7-dihydro-1H-pyrrolo[2,3-d]pyridazine-2-carboxylate]
4 | 9 min | 3 min | 4 min |  |  | 478 nM | CCNc1ccc(Oc2ccccc2)c(-c2nn(C)c(=O)c3[nH]c(C(=O)OCC)cc23)c1 [Example 75, ethyl 4-[5-(ethylamino)-2-phenoxyphenyl]-6-methyl-7-oxo-6,7-dihydro-1H-pyrrolo[2,3-d]pyridazine-2-carboxylate]
5 |  | 3 min | 43 min | 42.2 nM | 20.9 nM | 424 nM | CCN(C)C(=O)c1cc2c(-c3cc(NS(C)(=O)=O)ccc3Oc3ccccc3)nn(C)c(=O)c2[nH]1 [Example 83, N-ethyl-N,6-dimethyl-4-{5-[(methylsulfonyl)amino]-2-phenoxyphenyl}-7-oxo-6,7-dihydro-1H-pyrrolo[2,3-d]pyridazine-2-carboxamide]
6 | 97 min | 20 min | 11 min |  |  | 84 nM | CCCS(=O)(=O)Nc1ccc(OC2CCOC2)c(-c2cn(C)c(=O)c3[nH]ccc23)c1 (centres unmarked) [Example 92, N-[3-(6-methyl-7-oxo-6,7-dihydro-1H-pyrrolo[2,3-c]pyridin-4-yl)-4-(tetrahydrofuran-3-yloxy)phenyl]propane-1-sulfonamide]
7 | 26 min | 9 min | 28 min |  |  | 14 nM | CNS(=O)(=O)c1cnc(NC2CCCCC2)c(-c2cn(C)c(=O)c3[nH]ccc23)c1 [Example 97, 6-(cyclohexylamino)-N-methyl-5-(6-methyl-7-oxo-6,7-dihydro-1H-pyrrolo[2,3-c]pyridin-4-yl)pyridine-3-sulfonamide]
8 | 77 min | 71 min | 60 min |  |  | 107 nM | Cn1cc(-c2cc(NS(=O)(=O)CC(F)(F)F)ccc2OC2CCOCC2)c2cc[nH]c2c1=O [Example 100, 2,2,2-trifluoro-N-[3-(6-methyl-7-oxo-6,7-dihydro-1H-pyrrolo[2,3-c]pyridin-4-yl)-4-(tetrahydro-2H-pyran-4-yloxy)phenyl]ethanesulfonamide]
9 | 36 min | 3 min | 8 min |  |  | 61.5 nM | CCCS(=O)(=O)Nc1ccc(OC2CCC(F)(F)CC2)c(-c2cn(C)c(=O)c3[nH]ccc23)c1 [Example 102, N-{4-[(4,4-difluorocyclohexyl)oxy]-3-(6-methyl-7-oxo-6,7-dihydro-1H-pyrrolo[2,3-c]pyridin-4-yl)phenyl}propane-1-sulfonamide]
10 | 47 min | 16 min | 37 min |  |  | 33.8 nM | Cn1cc(-c2cc(NS(=O)(=O)CC(F)(F)F)ccc2OC2CCC(F)(F)CC2)c2cc[nH]c2c1=O [Example 103, N-{4-[(4,4-difluorocyclohexyl)oxy]-3-(6-methyl-7-oxo-6,7-dihydro-1H-pyrrolo[2,3-c]pyridin-4-yl)phenyl}-2,2,2-trifluoroethanesulfonamide]
11 | 39 min | 8 min | 4 min |  |  | 46.8 nM | CCCS(=O)(=O)Nc1ccc(OC2CCCOC2)c(-c2cn(C)c(=O)c3[nH]ccc23)c1 (centres unmarked) [Example 106, N-[3-(6-methyl-7-oxo-6,7-dihydro-1H-pyrrolo[2,3-c]pyridin-4-yl)-4-(tetrahydro-2H-pyran-3-yloxy)phenyl]propane-1-sulfonamide]
12 | 71 min | 16 min | 8 min |  |  | 31 nM | Cn1cc(-c2cc(NS(=O)(=O)CC(F)(F)F)ccc2OC2CCCOC2)c2cc[nH]c2c1=O (centres unmarked) [Example 107, 2,2,2-trifluoro-N-[3-(6-methyl-7-oxo-6,7-dihydro-1H-pyrrolo[2,3-c]pyridin-4-yl)-4-(tetrahydro-2H-pyran-3-yloxy)phenyl]ethanesulfonamide]
13 | 49 min | 28 min | 51 min |  |  | 240 nM | CNS(=O)(=O)c1cnc(Nc2ccccc2)c(-c2cn(C)c(=O)c3[nH]ccc23)c1 [Example 112, N-methyl-5-(6-methyl-7-oxo-6,7-dihydro-1H-pyrrolo[2,3-c]pyridin-4-yl)-6-(phenylamino)pyridine-3-sulfonamide]
14 | 5 min | 10 min | 4 min |  |  | 104 nM | Cn1cc(-c2cc(S(C)(=O)=O)ccc2Oc2cccc3cnccc23)c2cc[nH]c2c1=O [Example 161, 4-[2-(isoquinolin-5-yloxy)-5-(methylsulfonyl)phenyl]-6-methyl-1,6-dihydro-7H-pyrrolo[2,3-c]pyridin-7-one]
15 | 12 min | 7 min | 5 min |  |  | 115 nM | CN(C)c1cccc(Oc2ccc(S(C)(=O)=O)cc2-c2cn(C)c(=O)c3[nH]ccc23)c1 [Example 180, 4-{2-[3-(dimethylamino)phenoxy]-5-(methylsulfonyl)phenyl}-6-methyl-1,6-dihydro-7H-pyrrolo[2,3-c]pyridin-7-one]
16 | 54 min | 24 min | 48 min |  |  | 13.3 nM | CC1CC1COc1ccc(S(C)(=O)=O)cc1-c1cn(C)c(=O)c2[nH]ccc12 (centres unmarked) [Example 223, 6-methyl-4-{2-[(2-methylcyclopropyl)methoxy]-5-(methylsulfonyl)phenyl}-1,6-dihydro-7H-pyrrolo[2,3-c]pyridin-7-one]
17 | > 120 min | > 120 min | > 120 min |  |  | 421 nM | Cn1cc(-c2cc(S(C)(=O)=O)ccc2Oc2ccc(S(C)(=O)=O)cc2)c2cc[nH]c2c1=O [Example 270, 6-methyl-4-{5-(methylsulfonyl)-2-[4-(methylsulfonyl)phenoxy]phenyl}-1,6-dihydro-7H-pyrrolo[2,3-c]pyridin-7-one]
18 |  | 41 min | 91 min | 131 nM | 31.4 nM | 364 nM | CN(C)Cc1cc2c(-c3cc(S(C)(=O)=O)ccc3Oc3ccc(F)cc3F)cn(C)c(=O)c2[nH]1 [Example 279, 4-[2-(2,4-difluorophenoxy)-5-(methylsulfonyl)phenyl]-2-[(dimethylamino)methyl]-6-methyl-1,6-dihydro-7H-pyrrolo[2,3-c]pyridin-7-one]
19 | > 120 min | 57 min | 116 min |  |  | 18.7 nM | CCS(=O)(=O)Nc1ccc(Oc2ccc(F)cc2F)c(-c2cn(C)c(=O)c3[nH]ncc23)c1 [Example 320, N-[4-(2,4-difluorophenoxy)-3-(6-methyl-7-oxo-6,7-dihydro-1H-pyrazolo[3,4-c]pyridin-4-yl)phenyl]ethanesulfonamide]
20 | > 120 min | > 120 min | > 120 min |  |  | 37.7 nM | CCS(=O)(=O)c1ccc(OCC2CC2)c(-c2cn(C)c(=O)c3[nH]ncc23)c1 [Example 323, 4-[2-(cyclopropylmethoxy)-5-(ethylsulfonyl)phenyl]-6-methyl-1,6-dihydro-7H-pyrazolo[3,4-c]pyridin-7-one]
21 | > 120 min | > 120 min | > 120 min |  |  | 481 nM | CCS(=O)(=O)c1ccc(N2CCN(C)CC2)c(-c2cn(C)c(=O)c3[nH]ccc23)c1 [Example 331, 4-[5-(ethylsulfonyl)-2-(4-methylpiperazin-1-yl)phenyl]-6-methyl-1,6-dihydro-7H-pyrrolo[2,3-c]pyridin-7-one]
22 | 34 min |  | 21 min | 1170 nM | 661 nM | 515 nM | Cn1cc(-c2cc(-c3cccc(F)c3)ccc2OCC2CC2)c2cc[nH]c2c1=O [Example 334, 4-[4-(cyclopropylmethoxy)-3′-fluorobiphenyl-3-yl]-6-methyl-1,6-dihydro-7H-pyrrolo[2,3-c]pyridin-7-one]
23 | 35 min | 34 min | 54 min |  |  | 22.4 nM | Cn1cc(-c2cc(CS(C)(=O)=O)ccc2Nc2ccc(F)cc2)c2cc[nH]c2c1=O [Example 335, 4-{2-[(4-fluorophenyl)amino]-5-[(methylsulfonyl)methyl]phenyl}-6-methyl-1,6-dihydro-7H-pyrrolo[2,3-c]pyridin-7-one]
